# In US20240381872A1, “SUBSTITUTED 2,3-DIHYDRO[1,3]THIAZOLO[4,5-B]PYRIDINES, SALTS THEREOF AND THEIR USE AS HERBICIDALLY ACTIVE SUBSTANCES” (BAYER AKTIENGESELLSCHAFT, priority 2021, published 2024):
# Legend:
# Type in all cases: in vivo
# [1] = test system: Matricaria inodora (MATIN); test: Herbicidal pre-emergence action, section C (Table C6); settings: application rate 320 g/ha; visual grading after ca. 3 weeks
# From the text: Seeds of mono- and dicotyledonous weed plants and crop plants were sown, in plastic or organic planting pots, in sandy loam and covered with soil. The compounds according to the invention, formulated in the form of wettable powders (WP) or as emulsifiable concentrates (EC), were applied to the surface of the covering soil as aqueous suspension or emulsion, with the addition of 0.5% of an additive, at an application rate of 600 l of water/ha (converted). Following treatment, the pots were placed in a greenhouse and kept under optimum growth conditions for the test plants. The visual grading of the damage to the test plants was carried out after ca. 3 weeks in comparison to untreated controls (herbicidal effect in percent (%): 100% effect=plants have died off, 0% effect=as control plants).
# Poa annua (POAAN) [2] = test: Herbicidal post-emergence action, section B (Table B7); settings: application rate 320 g/ha; visual rating about 3 weeks after treatment vs untreated controls
# How it was run: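 Greenhouse post-emergence spray on one-leaf-stage plants (sown in sandy loam, 2 to 3 weeks old). WP/EC formulations in water + 0.5% additive, 600 liters per hectare. Read-out: visual % activity vs untreated, ~3 weeks after treatment; 100% = dead, 0% = as control.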
# [3] = test system: Triticum aestivum (TRZAS); test: Post-emergence effects on crop plants, section F (Table F2); settings: crop plant damage, application rate 80 g/ha
# How it was run: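 Sandy loam, greenhouse, controlled conditions. Spray at single-leaf stage (2–3 wk post-sowing); WP/EC aqueous suspension/emulsion + 0.5% additive, 600 l water/ha; rate ≤320 g/ha. Visual scoring ca. 3 wk post-spray vs untreated, % effect.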
# [4] = test system: Polygonum convolvulus (POLCO); test: Herbicidal post-emergence action, section E (Table E7); settings: application rate 320 g/ha, visual assessment ca. 3 weeks after spraying
# How it was run: (§1)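 Post-emergence greenhouse spray onto single-leaf-stage plants raised in sandy loam, using WP or EC formulations with 0.5% additive at 600 l water/ha. Effect is the visual percentage damage relative to untreated controls after about 3 weeks.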
# Kochia scoparia (KCHSC) = test: Herbicidal pre-emergence action, section A (Table A4); settings: application rate 1280 g/ha; visual grading after ca. 3 weeks vs untreated controls
# How it was run: (§2)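 Percent herbicidal effect relative to untreated plants (0% = as control, 100% = died off) scored visually about 3 weeks after treatment. Compounds formulated as WP or EC were sprayed at 600 L/ha with 0.5% additive onto covering soil of freshly sown sandy-loam pots, then kept under greenhouse conditions.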
# Stellaria media (STEME) = test: Herbicidal pre-emergence action, section A (Table A9); settings: application rate 320 g/ha
# How it was run: as §2
# [5] = test system: Alopecurus myosuroides (ALOMY); test: Herbicidal pre-emergence action, section A (Table A2); settings: application rate 1280 g/ha; visual grading after ca. 3 weeks vs untreated controls
# How it was run: as §2
# [6] = test system: Alopecurus myosuroides (ALOMY); test: Herbicidal post-emergence action, section E (Table E2); settings: application rate 320 g/ha; assessed visually after ca. 3 weeks
# How it was run: as §1
# [7] = test system: Matricaria inodora (MATIN); test: Herbicidal pre-emergence action, section A (Table A6); settings: application rate 1280 g/ha; visual grading after ca. 3 weeks vs untreated controls
# How it was run: as §2
# Poa annua (POAAN) [8] = test: Herbicidal pre-emergence action, section A (Table A7); settings: application rate 320 g/ha; visual grading after ca. 3 weeks vs untreated controls
# How it was run: as §2
# [9] = test system: Echinochloa crus-galli (ECHCG); test: Herbicidal post-emergence action, section E (Table E5); settings: application rate 320 g/ha, visual assessment ca. 3 weeks after spraying
# From the text: Seeds of mono- and dicotyledonous weed plants and crop plants were sown, in plastic or organic planting pots, in sandy loam, covered with soil and grown in a greenhouse under controlled growth conditions. 2 to 3 weeks after sowing, the test plants were sprayed in the single-leaf stage. The compounds according to the invention, formulated in form of wettable powders (WP) or as emulsifiable concentrates (EC), were sprayed onto the green plant parts as aqueous suspension or emulsion, with the addition of 0.5% of an additive, at an application rate of 600 l of water/ha (converted). The test plants were placed in the greenhouse for ca. 3 weeks under optimum growth conditions, and then the effect of the preparations was assessed visually in comparison with untreated controls (herbicidal effect in percent (%): 100% effect=plants have died off, 0% effect=as control plants).
smiles,measurement,setting,value
CC1(C(=O)N2CSc3cc(Br)c(-c4ccccc4)nc32)CC(Cl)=NO1 (centres unmarked) [Example I-139],pre-emergence activity against MATIN in %,[1],80%
same,post-emergence activity against POAAN in %,Poa annua (POAAN) [2],90%
same,post-emergence activity against TRZAS in %,[3],0%
same,post-emergence activity against POLCO in %,[4],90%
same,pre-emergence activity against KCHSC in %,Kochia scoparia (KCHSC),90%
same,pre-emergence activity against STEME in %,Stellaria media (STEME),90%
same,pre-emergence activity against ALOMY in %,[5],90%
same,post-emergence activity against ALOMY in %,[6],80%
same,pre-emergence activity against MATIN in %,[7],90%
same,pre-emergence activity against POAAN in %,Poa annua (POAAN) [8],100%
same,post-emergence activity against ECHCG in %,[9],90%
